Measured values from article PMC8565742 (PLoS Neglected Tropical Diseases, 2021).
Read-outs that look alike come from different tables or passages of the source.

Experiments:
Sm.TRPMPZQ [1] = biological target: T1, Sm.TRPMPZQ (Schistosoma mansoni, UniProt A0A5K4F0X5); experiment: cell-based
Protocol: HEK cells were transfected with cDNA (400μg/ml DNA) encoding Sm.TRPMPZQ using a Maxcyte STX electroporation system and incubated overnight at 37°C. This system is uniquely capabable of large scale transfections providing one batch of cells ready for large scale HTS [30]. Briefly, the HEK cells were resuspended at 10^8/ml in Maxcyte electroporation buffer. Plasmid DNA was added to the cells in buffer to achieve a concentration of 400 μg/ml from a stock of 5mg/ml (in TE buffer). This mixture was loaded into the appropriate cassette, inserted into the machine, and cells electroporated. Cells were then frozen to provide a single supply of transfected cells for all subsequent assays. On the day of the assays, cells were thawed in a 37°C waterbath, and resuspended in DMEM + 10% FBS and counted. The cells were pelleted by centrifugation at 170xg for 5 minutes. The media was aspirated, and the remaining pellet was resuspended in 1x HBSS with 20 mM HEPES and 1% DMSO to achieve 1.33x10^6cells/ml. This cell suspension was then dispensed at 3 μl/well to the 1536 well plates (Greiner Bio One part 789072) at a density of 4,000 cells/well. Measurements of fluorescence intensity (λex = 470 nm, λem = 535 nm) were made using a FLIPR (Molecular Devices FLIPR Tetra). A read of basal fluorescence values was made (5s) prior to addition of compounds or controls (30 nl). In both ‘agonist’ and ‘antagonist mode’, the total assay volume was 6μl (1% DMSO). […] Ligand performance was categorized using an algorithm based on the activity of the entire dataset to define a ‘hit-cutoff’ parameter for both agonist-mode and antagonist-mode screening. […] Titration assays were executed using the same reagents, protocols and detection systems, done as 10-point concentration-response curves, performed in triplicate. Counter-screening was performed using untransfected HEK293 cells for comparison with results testing the same compounds effect on cells expressing Sm.TRPMPZQ, with ATP used as the positive control. For each compound, activity was plotted against compound concentration and data were fitted with a sigmoidal function. […] ChemAxon (https://www.chemaxon.com) academic licensing was provided for the use of Instant JChem (ver. 15.10.12.0) to perform compound mining of the libraries utilized in this effort.

Sm.TRPMPZQ [2] = biological target: T1, Sm.TRPMPZQ; experiment: cell-based; conditions: for Emax: HEK293
Protocol: HEK cells were transfected with cDNA (400μg/ml DNA) encoding Sm.TRPMPZQ using a Maxcyte STX electroporation system and incubated overnight at 37°C. This system is uniquely capabable of large scale transfections providing one batch of cells ready for large scale HTS [30]. Briefly, the HEK cells were resuspended at 10^8/ml in Maxcyte electroporation buffer. Plasmid DNA was added to the cells in buffer to achieve a concentration of 400 μg/ml from a stock of 5mg/ml (in TE buffer). This mixture was loaded into the appropriate cassette, inserted into the machine, and cells electroporated. Cells were then frozen to provide a single supply of transfected cells for all subsequent assays. On the day of the assays, cells were thawed in a 37°C waterbath, and resuspended in DMEM + 10% FBS and counted. The cells were pelleted by centrifugation at 170xg for 5 minutes. The media was aspirated, and the remaining pellet was resuspended in 1x HBSS with 20 mM HEPES and 1% DMSO to achieve 1.33x10^6cells/ml. […] A read of basal fluorescence values was made (5s) prior to addition of compounds or controls (30 nl). In both ‘agonist’ and ‘antagonist mode’, the total assay volume was 6μl (1% DMSO). […] Ligand performance was categorized using an algorithm based on the activity of the entire dataset to define a ‘hit-cutoff’ parameter for both agonist-mode and antagonist-mode screening. […] Titration assays were executed using the same reagents, protocols and detection systems, done as 10-point concentration-response curves, performed in triplicate. Counter-screening was performed using untransfected HEK293 cells for comparison with results testing the same compounds effect on cells expressing Sm.TRPMPZQ, with ATP used as the positive control. For each compound, activity was plotted against compound concentration and data were fitted with a sigmoidal function.

[3] = system: untransfected HEK293 cells; experiment: Counterscreen, antagonist mode, Ca2+ signal in untransfected HEK cells; format: cell-based; conditions: counterscreen titration; for EC50: Homo sapiens, HEK293, unit inferred, read-out: HEK ANT Final EC50
Protocol: HEK cells were transfected with cDNA (400μg/ml DNA) encoding Sm.TRPMPZQ using a Maxcyte STX electroporation system and incubated overnight at 37°C. This system is uniquely capabable of large scale transfections providing one batch of cells ready for large scale HTS [30]. Briefly, the HEK cells were resuspended at 10^8/ml in Maxcyte electroporation buffer. Plasmid DNA was added to the cells in buffer to achieve a concentration of 400 μg/ml from a stock of 5mg/ml (in TE buffer). This mixture was loaded into the appropriate cassette, inserted into the machine, and cells electroporated. Cells were then frozen to provide a single supply of transfected cells for all subsequent assays. On the day of the assays, cells were thawed in a 37°C waterbath, and resuspended in DMEM + 10% FBS and counted. The cells were pelleted by centrifugation at 170xg for 5 minutes. The media was aspirated, and the remaining pellet was resuspended in 1x HBSS with 20 mM HEPES and 1% DMSO to achieve 1.33x10^6cells/ml. This cell suspension was then dispensed at 3 μl/well to the 1536 well plates (Greiner Bio One part 789072) at a density of 4,000 cells/well. Measurements of fluorescence intensity (λex = 470 nm, λem = 535 nm) were made using a FLIPR (Molecular Devices FLIPR Tetra). A read of basal fluorescence values was made (5s) prior to addition of compounds or controls (30 nl). In both ‘agonist’ and ‘antagonist mode’, the total assay volume was 6μl (1% DMSO). […] Ligand performance was categorized using an algorithm based on the activity of the entire dataset to define a ‘hit-cutoff’ parameter for both agonist-mode and antagonist-mode screening. Any compound with greater percent activation than this cutoff was assigned as ‘active’ prior to titration and counter-screening. Titration assays were executed using the same reagents, protocols and detection systems, done as 10-point concentration-response curves, performed in triplicate. Counter-screening was performed using untransfected HEK293 cells for comparison with results testing the same compounds effect on cells expressing Sm.TRPMPZQ, with ATP used as the positive control. For each compound, activity was plotted against compound concentration and data were fitted with a sigmoidal function. In order to be considered a hit at this stage a compound must achieve a EC50<5 μM for agonists and IC50 <5 μM for antagonists. All compounds selected for titration were subjected to LC-MS analysis to confirm mass and sample purity. ChemAxon (https://www.chemaxon.com) academic licensing was provided for the use of Instant JChem (ver. 15.10.12.0) to perform compound mining of the libraries utilized in this effort.

[4] = S2 Table, titration, listed as SR-01000003100-3
[5] = S2 Table, titration, listed as SR-01000003100-19

T1 sequence (A0A5K4F0X5 entry or part of it): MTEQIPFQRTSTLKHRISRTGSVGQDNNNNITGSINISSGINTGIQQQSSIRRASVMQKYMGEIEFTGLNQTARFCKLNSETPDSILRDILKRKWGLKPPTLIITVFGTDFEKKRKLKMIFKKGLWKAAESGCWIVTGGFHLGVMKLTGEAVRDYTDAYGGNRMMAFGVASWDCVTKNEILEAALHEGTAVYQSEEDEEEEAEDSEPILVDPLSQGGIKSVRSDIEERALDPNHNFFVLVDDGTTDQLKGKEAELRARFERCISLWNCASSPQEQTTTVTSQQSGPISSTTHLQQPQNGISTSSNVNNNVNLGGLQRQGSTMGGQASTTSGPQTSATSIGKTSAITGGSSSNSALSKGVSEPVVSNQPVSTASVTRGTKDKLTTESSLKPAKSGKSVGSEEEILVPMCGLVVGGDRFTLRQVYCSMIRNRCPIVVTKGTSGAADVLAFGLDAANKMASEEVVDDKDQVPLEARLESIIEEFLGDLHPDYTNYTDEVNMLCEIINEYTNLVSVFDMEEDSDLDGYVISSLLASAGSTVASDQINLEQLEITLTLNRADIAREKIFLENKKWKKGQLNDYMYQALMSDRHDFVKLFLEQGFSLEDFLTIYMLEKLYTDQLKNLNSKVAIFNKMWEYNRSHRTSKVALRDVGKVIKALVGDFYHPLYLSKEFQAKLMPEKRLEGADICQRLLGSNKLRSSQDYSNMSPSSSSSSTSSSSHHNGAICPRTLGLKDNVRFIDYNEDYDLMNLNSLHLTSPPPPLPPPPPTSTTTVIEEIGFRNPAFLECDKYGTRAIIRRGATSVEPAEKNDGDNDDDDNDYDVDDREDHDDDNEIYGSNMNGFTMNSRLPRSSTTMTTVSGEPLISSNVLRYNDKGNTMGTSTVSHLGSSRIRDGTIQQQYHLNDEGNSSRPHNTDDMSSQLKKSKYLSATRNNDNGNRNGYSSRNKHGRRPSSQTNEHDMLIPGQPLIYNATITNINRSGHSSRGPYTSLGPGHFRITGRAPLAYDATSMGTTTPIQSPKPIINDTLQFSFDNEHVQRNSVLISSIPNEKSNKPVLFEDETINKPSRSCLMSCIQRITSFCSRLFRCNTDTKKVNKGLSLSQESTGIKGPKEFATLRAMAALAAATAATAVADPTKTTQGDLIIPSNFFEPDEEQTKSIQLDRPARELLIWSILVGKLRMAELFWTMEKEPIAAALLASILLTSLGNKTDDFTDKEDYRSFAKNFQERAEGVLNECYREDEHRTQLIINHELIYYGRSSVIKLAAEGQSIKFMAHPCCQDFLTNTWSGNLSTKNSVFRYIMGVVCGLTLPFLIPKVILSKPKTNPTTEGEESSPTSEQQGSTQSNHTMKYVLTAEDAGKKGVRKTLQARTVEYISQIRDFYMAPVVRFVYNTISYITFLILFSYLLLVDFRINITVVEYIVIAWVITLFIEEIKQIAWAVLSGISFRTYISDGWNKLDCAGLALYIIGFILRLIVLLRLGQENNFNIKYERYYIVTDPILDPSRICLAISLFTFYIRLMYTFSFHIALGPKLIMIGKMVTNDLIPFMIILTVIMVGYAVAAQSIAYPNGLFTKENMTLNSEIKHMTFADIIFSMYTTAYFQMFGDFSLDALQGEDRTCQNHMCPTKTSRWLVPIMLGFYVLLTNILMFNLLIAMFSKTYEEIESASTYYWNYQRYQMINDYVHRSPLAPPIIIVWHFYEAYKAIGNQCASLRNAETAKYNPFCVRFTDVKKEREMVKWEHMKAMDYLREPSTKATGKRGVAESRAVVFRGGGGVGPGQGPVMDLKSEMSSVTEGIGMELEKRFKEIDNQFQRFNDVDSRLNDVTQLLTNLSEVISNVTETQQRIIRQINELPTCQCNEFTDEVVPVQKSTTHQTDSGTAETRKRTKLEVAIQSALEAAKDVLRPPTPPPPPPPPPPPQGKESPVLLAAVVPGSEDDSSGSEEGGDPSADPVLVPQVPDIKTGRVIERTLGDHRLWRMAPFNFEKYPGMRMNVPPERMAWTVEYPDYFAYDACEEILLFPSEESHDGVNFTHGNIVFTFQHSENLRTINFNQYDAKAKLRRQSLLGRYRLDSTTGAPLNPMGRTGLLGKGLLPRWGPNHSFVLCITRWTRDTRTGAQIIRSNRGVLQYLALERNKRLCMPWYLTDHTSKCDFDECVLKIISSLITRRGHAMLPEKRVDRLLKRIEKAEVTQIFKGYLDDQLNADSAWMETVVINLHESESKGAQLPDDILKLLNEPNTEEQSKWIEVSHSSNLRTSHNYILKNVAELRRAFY

## COc1ccc(-c2nnc3ccc(-c4cccc(C(C)C)c4)cn23)cc1OC [AG1, 3-(3,4-Dimethoxyphenyl)-6-(3-propan-2-ylphenyl)-[1,2,4]triazolo[4,3-a]pyridine]
Sm.TRPMPZQ [1]; HEK293, S2 Table, titration, read-out: Sm.TRPMPZQ AG Averaged Max % Response
  Emax: 97.5%
Sm.TRPMPZQ [1]; HEK293, read-out: Bmax, activation in primary screen
  activation at 5 µM: 93.9 ± 5.6%
Sm.TRPMPZQ [1]; S2 Table, 10-point titration in triplicate, unit inferred, read-out: Sm.TRPMPZQ AG Final EC50
  EC50: 1560 nM
Sm.TRPMPZQ [1]; S2 Table, titration
  Sm.TRPMPZQ AG Hill Slope: 1.659
Sm.TRPMPZQ [1]; concentration-response curve analysis
  agonist efficacy: full agonist
Sm.TRPMPZQ [1]; concentration-response of library sample, Ca2+ flux, read-out: EC50
  EC50: 1600 ± 300 nM
Sm.TRPMPZQ [1]; re-sourced, independently procured sample, read-out: EC50
  EC50: 9200 nM
Sm.TRPMPZQ [2]; S2 Table, antagonist mode titration, read-out: Sm.TRPMPZQ Averaged Max % Response
  Emax: 109%
Sm.TRPMPZQ [2]; S2 Table, 10-point titration in triplicate, unit inferred, read-out: Sm.TRPMPZQ ANT Final EC50
  EC50: 571 nM
Sm.TRPMPZQ [2]; S2 Table, titration
  Sm.TRPMPZQ ANT Hill Slope: 2.322
[3]; S2 Table
  EC50: 10300 nM
  HEK ANT Averaged Max % Response: 64.2957%

## Cc1onc(-c2ccccc2)c1C(=O)N1CCN(C2c3ccccc3-c3ccccc32)CC1 [ANT1, 1-(9H-fluoren-9-yl)-4-(5-methyl-3-phenyl-1,2-oxazole-4-carbonyl)piperazine]
Sm.TRPMPZQ [1]; HEK293, S3 Table, titration, read-out: Sm.TRPMPZQ AG Averaged Max % Response
  Emax: 11.6%
Sm.TRPMPZQ [1]; S3 Table, 10-point titration in triplicate, unit inferred, read-out: Sm.TRPMPZQ AG Final EC50
  EC50: > 12400 nM
Sm.TRPMPZQ [2]; S3 Table, titration, read-out: Sm.TRPMPZQ ANT Averaged Max % Response
  Emax: 105%
Sm.TRPMPZQ [2]; read-out: IC50, block of PZQ-evoked Ca2+ signals
  IC50: 1300 ± 300 nM
[3]; S3 Table
  EC50: > 12400 nM
  HEK ANT Averaged Max % Response: 43.1011%

## O=C(C1CCCCC1)N1CC(=O)N2CCc3ccccc3C2C1 (centres unmarked) [PZQ, praziquantel, reference compound]
Sm.TRPMPZQ [1]; HEK293, read-out: Sm.TRPMPZQ AG Averaged Max % Response, S2 Table, titration
  Emax: 80.3%
Sm.TRPMPZQ [1]; [4]
  Sm.TRPMPZQ AG Hill Slope: 1.753
Sm.TRPMPZQ [1]; [5]
  Sm.TRPMPZQ AG Averaged Max % Response: 90.5499%
  Sm.TRPMPZQ AG Hill Slope: 1.657
Sm.TRPMPZQ [2]; [4]
  Sm.TRPMPZQ ANT Hill Slope: 1.74
[3]; S2 Table
  EC50: > 12400 nM
[3]; S2 Table, listed as SR-01000003100-3
  HEK ANT Averaged Max % Response: 20.9575%
[3]; S2 Table, listed as SR-01000003100-19
  HEK ANT Averaged Max % Response: 9.578%
